Tests used:
[1] = molecular target: T1, AR-VP16 (Homo sapiens, UniProt P10275); assay: AR-VP16 DNA Binding Assay, agonist mode (HepG2 cells); assay type: cell-based; details: Emax >20x DMSO control = agonist
T1 sequence (P10275 560-920 limits assumed): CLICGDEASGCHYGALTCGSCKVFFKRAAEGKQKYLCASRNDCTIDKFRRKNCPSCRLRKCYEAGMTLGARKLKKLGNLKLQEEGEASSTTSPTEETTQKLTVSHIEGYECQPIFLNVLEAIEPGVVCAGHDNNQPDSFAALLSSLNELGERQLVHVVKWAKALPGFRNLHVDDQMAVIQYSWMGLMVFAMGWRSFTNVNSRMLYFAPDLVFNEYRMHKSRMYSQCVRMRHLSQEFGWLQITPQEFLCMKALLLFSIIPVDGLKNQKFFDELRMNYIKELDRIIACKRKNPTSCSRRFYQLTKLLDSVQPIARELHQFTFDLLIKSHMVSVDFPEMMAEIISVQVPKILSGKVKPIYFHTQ

[2] = molecular target: T1, AR-VP16; assay: AR-VP16 DNA Binding Assay, antagonist mode (HepG2 cells, 0.1 nM R1881); assay type: cell-based
In short: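 Transfected HepG2 cells expressing AR-VP16 received serially diluted compound in charcoal-stripped-serum RPMI the day after transfection, with 0.1 nM R1881 (final) added only for antagonist testing. After 48 h, cells were lysed for measurement.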

Structure (SMILES)	ARVP16 DNA Binding Assay (Agonist mode): Agonist? [1]	IC50 [2] [nM]
Cc1cc(N2C(=S)N(c3cnc(C#N)c(C)c3)C(=O)C23CCC3)ccc1C(N)=O [Compound 233, 4-(7-(6-Cyano-5-methylpyridin-3-yl)-8-oxo-6-thioxo-5,7-diazaspiro[3.4]octan-5-yl)-2-methylbenzamide]	No (Agonist defined as a compound whose Emax in the ARVP16 DNA Binding Assay (Agonist mode) is >20x DMSO control)	> 1000
N#Cc1ncc(N2C(=O)C3(CCC3)N(c3ccc(C(=O)NCCN4CCCC4)c(F)c3)C2=S)cc1C(F)(F)F [Compound 234, 4-(7-(6-Cyano-5-(trifluoromethyl)pyridin-3-yl)-8-oxo-6-thioxo-5,7-diazaspiro[3.4]octan-5-yl)-2-fluoro-N-(2-(pyrrolidin-1-yl)ethyl)benzamide]	No (Agonist defined as a compound whose Emax in the ARVP16 DNA Binding Assay (Agonist mode) is >20x DMSO control)	> 1000
N#Cc1ncc(N2C(=O)C3(CCC3)N(c3ccc(C(=O)NCCc4ccccn4)c(F)c3)C2=S)cc1C(F)(F)F [Compound 236, 4-(7-(6-Cyano-5-(trifluoromethyl)pyridin-3-yl)-8-oxo-6-thioxo-5,7-diazaspiro[3.4]octan-5-yl)-2-fluoro-N-(2-(pyridin-2-yl)ethyl)benzamide]	No (Agonist defined as a compound whose Emax in the ARVP16 DNA Binding Assay (Agonist mode) is >20x DMSO control)	< 1000
N#Cc1ncc(N2C(=O)C3(CCC3)N(c3ccc(C(=O)NCCCN4CCCC4)c(F)c3)C2=S)cc1C(F)(F)F [Compound 237, 4-(7-(6-Cyano-5-(trifluoromethyl)pyridin-3-yl)-8-oxo-6-thioxo-5,7-diazaspiro[3.4]octan-5-yl)-2-fluoro-N-(3-(pyrrolidin-1-yl)propyl)benzamide]	No (Agonist defined as a compound whose Emax in the ARVP16 DNA Binding Assay (Agonist mode) is >20x DMSO control)	< 1000
N#Cc1ncc(N2C(=O)C3(CCC3)N(c3ccc(C(=O)NCCc4ccncc4)c(F)c3)C2=S)cc1C(F)(F)F [Compound 238, 4-(7-(6-Cyano-5-(trifluoromethyl)pyridin-3-yl)-8-oxo-6-thioxo-5,7-diazaspiro[3.4]octan-5-yl)-2-fluoro-N-(2-(pyridin-4-yl)ethyl)benzamide]	No (Agonist defined as a compound whose Emax in the ARVP16 DNA Binding Assay (Agonist mode) is >20x DMSO control)	> 1000
N#Cc1ncc(N2C(=O)C3(CCC3)N(c3ccc(F)c(C(=O)NCCc4ccccn4)c3)C2=S)cc1C(F)(F)F [Compound 239, 5-(7-(6-Cyano-5-(trifluoromethyl)pyridin-3-yl)-8-oxo-6-thioxo-5,7-diazaspiro[3.4]octan-5-yl)-2-fluoro-N-(2-(pyridin-2-yl)ethyl)benzamide]	No (Agonist defined as a compound whose Emax in the ARVP16 DNA Binding Assay (Agonist mode) is >20x DMSO control)	> 1000
N#Cc1ncc(N2C(=O)C3(CCC3)N(c3ccc(F)c(C(=O)NCCc4cccnc4)c3)C2=S)cc1C(F)(F)F [Compound 240, 5-(7-(6-Cyano-5-(trifluoromethyl)pyridin-3-yl)-8-oxo-6-thioxo-5,7-diazaspiro[3.4]octan-5-yl)-2-fluoro-N-(2-(pyridin-3-yl)ethyl)benzamide]	No (Agonist defined as a compound whose Emax in the ARVP16 DNA Binding Assay (Agonist mode) is >20x DMSO control)	> 1000
N#Cc1ncc(N2C(=O)C3(CCC3)N(c3ccc(F)c(C(=O)NCCc4ccncc4)c3)C2=S)cc1C(F)(F)F [Compound 241, 5-(7-(6-Cyano-5-(trifluoromethyl)pyridin-3-yl)-8-oxo-6-thioxo-5,7-diazaspiro[3.4]octan-5-yl)-2-fluoro-N-(2-(pyridin-4-yl)ethyl)benzamide]	No (Agonist defined as a compound whose Emax in the ARVP16 DNA Binding Assay (Agonist mode) is >20x DMSO control)	> 1000
N#Cc1ncc(N2C(=O)C3(CCC3)N(c3ccc(C(=O)NCCN4CCOCC4)c(F)c3)C2=S)cc1C(F)(F)F [Compound 242, 4-(7-(6-Cyano-5-(trifluoromethyl)pyridin-3-yl)-8-oxo-6-thioxo-5,7-diazaspiro[3.4]octan-5-yl)-2-fluoro-N-(2-morpholinoethyl)benzamide]	No (Agonist defined as a compound whose Emax in the ARVP16 DNA Binding Assay (Agonist mode) is >20x DMSO control)	< 1000
CN1CCN(CCNC(=O)c2ccc(N3C(=S)N(c4cnc(C#N)c(C(F)(F)F)c4)C(=O)C34CCC4)cc2F)CC1 [Compound 243, 4-(7-(6-Cyano-5-(trifluoromethyl)pyridin-3-yl)-8-oxo-6-thioxo-5,7-diazaspiro[3.4]octan-5-yl)-2-fluoro-N-(2-(4-methylpiperazin-1-yl)ethyl)benzamide]	No (Agonist defined as a compound whose Emax in the ARVP16 DNA Binding Assay (Agonist mode) is >20x DMSO control)	> 1000
N#Cc1ncc(N2C(=O)C3(CCC3)N(c3ccc(C(=O)NCCc4cccnc4)c(F)c3)C2=S)cc1C(F)(F)F [Compound 244, 4-(7-(6-Cyano-5-(trifluoromethyl)pyridin-3-yl)-8-oxo-6-thioxo-5,7-diazaspiro[3.4]octan-5-yl)-2-fluoro-N-(2-(pyridin-3-yl)ethyl)benzamide]	No (Agonist defined as a compound whose Emax in the ARVP16 DNA Binding Assay (Agonist mode) is >20x DMSO control)	< 1000
CCOC(=O)CNC(=O)c1ccc(N2C(=S)N(c3cnc(C#N)c(C(F)(F)F)c3)C(=O)C23CCC3)cc1F [Compound 245, Ethyl 2-(4-(7-(6-cyano-5-(trifluoromethyl)pyridin-3-yl)-8-oxo-6-thioxo-5,7-diazaspiro[3.4]octan-5-yl)-2-fluorobenzamido)acetate]	No (Agonist defined as a compound whose Emax in the ARVP16 DNA Binding Assay (Agonist mode) is >20x DMSO control)	> 1000
CCOC(=O)CCNC(=O)c1ccc(N2C(=S)N(c3cnc(C#N)c(C(F)(F)F)c3)C(=O)C23CCC3)cc1F [Compound 246, Ethyl 3-(4-(7-(6-cyano-5-(trifluoromethyl)pyridin-3-yl)-8-oxo-6-thioxo-5,7-diazaspiro[3.4]octan-5-yl)-2-fluorobenzamido)propanoate]	No (Agonist defined as a compound whose Emax in the ARVP16 DNA Binding Assay (Agonist mode) is >20x DMSO control)	> 1000
CCOC(=O)CCCNC(=O)c1ccc(N2C(=S)N(c3cnc(C#N)c(C(F)(F)F)c3)C(=O)C23CCC3)cc1F [Compound 247, Ethyl 4-(4-(7-(6-cyano-5-(trifluoromethyl)pyridin-3-yl)-8-oxo-6-thioxo-5,7-diazaspiro[3.4]octan-5-yl)-2-fluorobenzamido)butanoate]	No (Agonist defined as a compound whose Emax in the ARVP16 DNA Binding Assay (Agonist mode) is >20x DMSO control)	> 1000
COCCCNC(=O)c1ccc(N2C(=S)N(c3cnc(C#N)c(C(F)(F)F)c3)C(=O)C23CCC3)cc1F [Compound 249, 4-(7-(6-Cyano-5-(trifluoromethyl)pyridin-3-yl)-8-oxo-6-thioxo-5,7-diazaspiro[3.4]octan-5-yl)-2-fluoro-N-(3-methoxypropyl)benzamide]	No (Agonist defined as a compound whose Emax in the ARVP16 DNA Binding Assay (Agonist mode) is >20x DMSO control)	< 1000
COCCN(C)C(=O)c1ccc(N2C(=S)N(c3cnc(C#N)c(C(F)(F)F)c3)C(=O)C23CCC3)cc1F [Compound 250, 4-(7-(6-Cyano-5-(trifluoromethyl)pyridin-3-yl)-8-oxo-6-thioxo-5,7-diazaspiro[3.4]octan-5-yl)-2-fluoro-N-(2-methoxyethyl)-N-methylbenzamide]	No (Agonist defined as a compound whose Emax in the ARVP16 DNA Binding Assay (Agonist mode) is >20x DMSO control)	> 1000
N#Cc1ncc(N2C(=O)C3(CCC3)N(c3ccc(F)c(C(=O)NCCN4CCCC4)c3)C2=S)cc1C(F)(F)F [Compound 251, 5-(7-(6-Cyano-5-(trifluoromethyl)pyridin-3-yl)-8-oxo-6-thioxo-5,7-diazaspiro[3.4]octan-5-yl)-2-fluoro-N-(2-(pyrrolidin-1-yl)ethyl)benzamide]	No (Agonist defined as a compound whose Emax in the ARVP16 DNA Binding Assay (Agonist mode) is >20x DMSO control)	> 1000
N#Cc1ncc(N2C(=O)C3(CCC3)N(c3ccc(F)c(C(=O)NCCCN4CCCC4)c3)C2=S)cc1C(F)(F)F [Compound 252, 5-(7-(6-Cyano-5-(trifluoromethyl)pyridin-3-yl)-8-oxo-6-thioxo-5,7-diazaspiro[3.4]octan-5-yl)-2-fluoro-N-(3-(pyrrolidin-1-yl)propyl)benzamide]	No (Agonist defined as a compound whose Emax in the ARVP16 DNA Binding Assay (Agonist mode) is >20x DMSO control)	< 1000
N#Cc1ncc(N2C(=O)C3(CCC3)N(c3ccc(F)c(C(=O)NCCN4CCOCC4)c3)C2=S)cc1C(F)(F)F [Compound 253, 5-(7-(6-Cyano-5-(trifluoromethyl)pyridin-3-yl)-8-oxo-6-thioxo-5,7-diazaspiro[3.4]octan-5-yl)-2-fluoro-N-(2-morpholinoethyl)benzamide]	No (Agonist defined as a compound whose Emax in the ARVP16 DNA Binding Assay (Agonist mode) is >20x DMSO control)	> 1000
